Entries after “also recorded” stand apart in the source; their conditions may differ.
How the values were obtained:
[1] = tested on: response element RARE of RARβ gene, endogenic retinoic receptors, HRLN lineage; experiment: HRLN transactivation (RARE-luciferase, stably transfected HeLa); assay type: cell-based; details: Homo sapiens, HeLa; for EC50: concentrations from 1 nM to 1 μM; for Emax: read-out: HRLN transactivation, E max
Procedure: (§1) MCF-7 cells and HeLa are cultivated in DMFM with phenol red to which 5% foetal calf serum is added. The T47-D cells are cultivated in RPMI to which 10% foetal calf serum is added. The experimental tests are carried out in DMEM without phenol red to which foetal calf serum treated with dextran carbon is added at 3%. […] The experiments using the different retinoids are carried out sheltered from the light so as to avoid any isomerisation.
(§2) Certain properties of the retinoids have been determined using more developed cellular models. These models consist of cellular lineages transfected in a stable fashion by recombinant plasmids which place the expression of the gene of the luciferase under the control of different nuclear response elements. […] The tests carried out in duplicate are described below for each of these models.
The cellular lineages HRLN and HRL+N allow one to study the activation of an RARE by endogenic receptors using ligands at physiological concentrations. These lineages derive from HeLa cells transfected in a stable fashion by a reporter gene which places the expression of the gene of the luciferase under the control of a nuclear response element RARE (RARE3 -tk-Luc). The HeLa cells express all the known receptors of the retinoic acid (RARα,β,γ and RXRα,β,γ) with a predominance of RARα and RXRα. The response element RARE used for the HRLN cells corresponds to the sequence of the natural gene of the RARβ receptor (GGTTCAnnnnnAGTTCA). The HRL+N cells comprise the sequence GAGTGAnnnnnCGGTGA.
This lineage comprises the response element RARE of the natural gene of the RARβ receptor which controls the expression of the gene of the luciferase.

[2] = tested on: human mammary tumoral lineage T-47D; experiment: Clonogenic test (soft agar), growth of cellular colonies; assay type: cell-based; details: T-47D; for activity at 0.01 µM / activity at 0.001 µM / activity at 0.0001 µM: 504 h, 21 days, control = 100%, read-out: mean number of cellular colonies in relation to control; for activity at 0.001 µM: 10^-9 M; for activity at 0.0001 µM: 10^-10 M; for effect on growth of cellular colonies (in words): soft agar
Source text: The human tumour stem cells are the clonogenic cells which are the origin of the neoplasic cells which constitute a given tumour. These tumour stem cells are responsible for the recidivism process observable after surgical resection of the primary tumours and are also responsible for the formation of metastases. […] At the level of a tumour or of a tumoral cellular lineage, these clonogenic stem cells distinguish themselves from other clonogenic cells of the tumour or of the neoplasic cellular lineage being considered, by the fact that they preserve their ability to proliferate in the absence of any solid support.
This technique is suitable for the culturing in vitro of most of the tumours and tumoral cellular lineages of various histological types. In the context of this test, the neoplastic cells are cultured on a semi-solid culture medium "soft agar" made up of a mixture of agar and agarose. On this selective support, only tumoral stem cells survive and proliferate. […] The morphological characteristics and the growth of the cellular colonies are also a function of the histological type of the tumours being considered.
These culture conditions are also called "anchorage-independent" conditions.
The base medium "MEM 25 MM HEPES" (Minimum Essential Medium, Life Technologies, Belgium) contains Eagle salts but no L-glutamine. This medium is well suited to the growth of a range of varied diploid cells or primary mammal cells. To this medium is then added:
The tumoral cells are maintained in culture in 25 cm^2 falcon dishes (Life Technologies, Belgium). They are then trypsinised and individualised. Their rate of viability is determined by coloration with trypan blue (Sigma, Belgium). It must be greater than 90%. In the case where this condition is kept to, a cellular suspension at the desired concentration is prepared in a solution of agar at 0. 3%. The cells are then seeded between two layers of agar (Sigma, Belgium) and in 35 mm Petri dishes (Life Technologies, Belgium). The base layer is made up of a 0.5% solution of agar and the top layer is made up of a 0.3% solution of agar. The cupules are then positioned and held in an incubator at 37° C. and 5% of CO2. […] After treatment, the cupules are kept in the incubator for 21 days. It is advisable to examine, during the course of the experiment, the appearance and the increase of the cellular colonies. If after 10 days, no colony appears or is developing, the experiment must be repeated. In the contrary case, on the 21st day, 100 μl of an MTT solution (3-(4,5-dimethylthiazol-2-yl)-2,5 diphenyl tetrazolium bromide; Sigma, Belgium) dissolved in the RPMI culture medium (Roswell park Memorial Institute, Life Technologies, Belgium), at the concentration of 1 mg/ml are deposited on the top layer of the group of cupules. The cells are kept in contact with this solution for a minimum of 3 hours at 37° C.
Using an inverted microscope at low magnification, the number of clones whose surface area is greater thar. 100 μm^2 is determined for the group of cupules representing all the different experimental conditions. Then, for each of these experimental conditions, the mean number of cellular colonies±the standard error on the mean (ESM) is calculated.
The mean number of cellular colonies determined for each experimental condition is expressed as a percentage in relation to the control condition made equal to 100%.

RARα-ERcassette = experiment: Transactivation, chimerical receptor RARα-ERcassette (HeLa); assay type: cell-based; details: 10^-6 M; TTNPB 10^-8 M = 100
Source text: (§3) The HeLa cells are co-transfected by a plasmid which codes for a retinoic receptor in which the C domain of bonding to the DNA is substituted by that of the receptor to RE oestrogens, and a plasmid which places the expression of the luciferase under the control of an ERE (Element of Response to Oestrogens). The expressed chimerical receptors are designated as RARα-ERcassette, RARβ-ERcassette, RARγ-ERcassette and RXRα-ERcassette. The A, B, D, E and F regions of the natural receptor are preserved as well as the transcriptional co-operation between the activation domains AF-1 and AF-2. These transitory transfection experiments follow the method of co-precipitation to calcium phosphate. The HeLa cells are co-transfected by […] of plasmid coding for the chimerical receptor, […] of reporter plasmid and […] of expression vector CMV-β-galactosidase used as an internal control of transfection. 24 hours after the transfection, the cells are incubated for 16 hours with the different effectors.
(§4) In this type of chimerical receptor, the C domain of bonding to the DNA of RAR is substituted by that of the receptor to the RE oestrogens. The protein obtained is close to the natural RAR receptor and preserves the transcriptional properties of the AF-1 and AF-2 domains. It modulates the transcription by means of an ERE. This RAR-ERcassette model allows one to observe a transcriptional response to a more physiological ligand.

RARβ-ERcassette = experiment: Transactivation, chimerical receptor RARβ-ERcassette (HeLa); assay type: cell-based; details: 10^-6 M; TTNPB 10^-8 M = 100
Source text: as §3, §4

[3] = tested on: ERE-βGlob-Luc, MELN lineage (MCF-7); experiment: Anti-oestrogenic effect, MELN lineage activated by estradiol; assay type: cell-based, human; details: for inhibition / inhibition at 0.1 µM / inhibition at 0.01 µM: Homo sapiens, MCF7, cells activated by 10^-9 M estradiol; for inhibition: 10^-6 M; for inhibition at 0.1 µM: 10^-7 M; for inhibition at 0.1 µM / inhibition at 0.01 µM: read-out: anti-oestrogenic effect, inhibition; for inhibition at 0.01 µM: 10^-8 M
Source text: as §2
MCF-7 cells express RARα,γ and RXRα. The transfection of MCF-7 cells by an oestrogen-dependent gene (ERE-βGlob-Luc) has permitted the establishment of the MELN cellular lineage, used to determine the anti-oestrogenic activity of the retinoids. These cells contain the gene of the luciferase under the transcriptional control of the promoter of the βGlobine and of the response element ERE isolated from the gene of chicken vitelogenine A2. The experiments are carried out with MELN cells activated by 10^-9 M estradiol. The level of base activity of the MELN cells is obtained with the anti-oestrogen 1 μM 4-OH-tamoxifen (hydroxytamoxifen).
The effect of the products tested on the cells activated by 10^-9 M estradiol is expressed as a percentage, the level of base activity being deducted.

RARγ-ERcassette = experiment: Transactivation, chimerical receptor RARγ-ERcassette (HeLa); assay type: cell-based; details: 10^-6 M; TTNPB 10^-8 M = 100
Source text: as §3, §4

T-47D cells = experiment: Effect on oestrogen-induced proliferation of T-47D cells; assay type: cell-based, human; details: estradiol 10^-9 M
Procedure: as §1
So as to test the anti-proliferation effect of the retinoids, growth experiments under oestrogenic conditions were carried out on cells MCF-7 and T-47D. These are the human oestrogen-dependent mammary cancer cells which express the receptor to RE oestrogens. The effect of the molecules is evaluated after 7 days of culture in oestrogenic conditions (estradiol 10^-9 M) by dosing the cellular DNA. The cells are distributed in 24 well plates at a density of 2×10^4 cells per well. The tests with the different retinoids are carried out in triplicate and the culture medium is changed after 4 days of growth.

RAR and RXR receptors = experiment: RAR/RXR activity profile drawn from the models; assay type: cell-based
Source text: The reference molecules have allowed one to show the effectiveness and the complementary nature of the different models used and lead to the following conclusions: chimerical constructions GAL-RAR and RAR-ERcassette allow the determination of the RAR agonist profile of molecules, but also an RXR agonist activity with RAR-ERcassette, the HRLN lineage mainly conveys the activity of a compound mediated by endogenic RARα, the HRL+N lineage also provides evidence of an RXR agonist activity of the retinoids, the anti-oestrogenic effect of the retinoids (oestrogen-induced cellular proliferation and MELN lineage) is mediated by RARα, the anti-AP-1 effect is mediated in the MCF-7 cells (MTLN lineage) by RARα, RARγ and RXRα, and an additive effect exists between the RAR and RXR routes.

Row | Structure (SMILES) | EC50 [1] [nM] | RAR/RXR activity profile (in words) (RAR and RXR receptors) | Emax [1] [%] | activity at 0.01 µM ([2]; Homo sapiens, T47D, 10^-8 M) [%] | activity at 0.001 µM ([2]; Homo sapiens, T47D) [%] | activity at 0.0001 µM ([2]; Homo sapiens, T47D) [%] | inhibition at 0.01 µM ([2]; Homo sapiens, T47D, 10^-8 M, read-out: inhibition of colony growth) [%] | RAR-ERcassette RARα transactivation (RARα-ERcassette) [%] | RAR-ERcassette RARβ transactivation (RARβ-ERcassette) [%] | inhibition [3] [%] | inhibition at 0.1 µM [3] [%] | inhibition at 0.01 µM [3] [%] | RAR-ERcassette RARγ transactivation (RARγ-ERcassette) [%] | effect on growth of cellular colonies (in words) [2] | inhibition at 1 µM (T-47D cells; Homo sapiens, T47D, 168 h, 1 μM (10^-6 M), 7 days, read-out: percentage inhibition of growth, T-47D) [%] | anti-oestrogenic effect (in words) ([3]; estradiol-activated MELN cells) | effect on oestrogen-induced growth, T-47D (in words) (T-47D cells)
1 | C/C(=C\c1ccc2c(c1)C(C)(C)CCC2(C)C)c1ccc(C(=O)O)nc1 [CB12273, (E) 5-[1-(5,6,7,8-tetrahydro-5,5,8,8-tetramethyl-2-naphthalenyl)-2-propenyl]pyridinyl-2-carboxylic acid] | 21.4 ± 5.6 |  | 106 | 71.2 ± 2.9 | 93.9 ± 3.3 | 92.9 ± 21.7 | 28.8 | 90 | 123 | 21 to 41 | 7 to 16 | 0 | 106 |  |  |  | 
2 | C/C(=C\c1ccc2c(c1)C(C)(C)CCC2(C)C)c1ccc(C(=O)O)s1 [CB38973] | 14.9 ± 12.3 |  | 89 | 38.6 ± 3.6 | 60.1 ± 2 | 68.4 ± 8.3 |  |  |  | 30 |  |  |  | inhibit the growth of the cellular colonies; also recorded: significantly inhibit the growth of the colonies | 55 |  | 
3 | C/C(=C\c1ccc2c(c1)C(C)(C)CCC2(C)C)c1ccc(C(=O)O)cc1 [CB24159, reference compound] | 0.08 ± 0.1 | RAR selective | 100 |  |  |  |  | 113 | 117 | 22 to 37 | 26 to 43 | 31 to 43 | 89 |  |  | the most inhibiting of the oestrogenic transcription on the MELN model | inhibits the growth of the T-47D cells in a dose dependent manner with an efficacy greater than that of TTNPB

Second part, led by results:

Row | EC50 [1] [nM] | RAR/RXR activity profile (in words) (RAR and RXR receptors) | Structure (SMILES) | Emax [1] [%] | activity at 0.01 µM ([2]; Homo sapiens, T47D, 10^-8 M) [%] | activity at 0.001 µM ([2]; Homo sapiens, T47D) [%] | activity at 0.0001 µM ([2]; Homo sapiens, T47D) [%] | inhibition at 0.01 µM ([2]; Homo sapiens, T47D, 10^-8 M, read-out: inhibition of colony growth) [%] | RAR-ERcassette RARα transactivation (RARα-ERcassette) [%] | RAR-ERcassette RARβ transactivation (RARβ-ERcassette) [%] | inhibition [3] [%] | inhibition at 0.1 µM [3] [%] | inhibition at 0.01 µM [3] [%] | RAR-ERcassette RARγ transactivation (RARγ-ERcassette) [%] | effect on growth of cellular colonies (in words) [2] | inhibition at 1 µM (T-47D cells; Homo sapiens, T47D, 168 h, 1 μM (10^-6 M), 7 days, read-out: percentage inhibition of growth, T-47D) [%] | anti-oestrogenic effect (in words) ([3]; estradiol-activated MELN cells) | effect on oestrogen-induced growth, T-47D (in words) (T-47D cells)
4 | 55.8 ± 70.1 |  | C/C(=C\c1ccc2c(c1)C(C)(C)CCC2(C)C)c1cc(C(=O)O)no1 [CB57201] | 70 | 64.8 ± 1.2 | 58.9 ± 11 | 75.2 ± 12.2 |  | 73 | 132 | 23 to 41 | 1 to 9 | 0 | 84 | inhibit the growth of the cellular colonies; also recorded: significantly inhibit the growth of the colonies |  |  | 
5 | 38.3 ± 9.5 |  | C/C(=C\c1ccc2c(c1)C(C)(C)CCC2(C)C)c1cc(C(=O)O)cs1 [CB80660] | 106 |  |  |  |  |  |  | 18 to 37 | 20 to 42 | 26 |  |  |  |  | 

— US6265423A, “Aromatic polycyclic retinoid-type derivatives, method for preparing same, and use thereof for making pharmaceutical and cosmetic compositions” (priority 1996, dated 2001)
